# Experimental data from ChEMBL document CHEMBL5620351, “Advancing beyond reverse transcriptase inhibitors: The new era of hepatitis B polymerase inhibitors” (Eur J Med Chem, 2023).
# What was measured:
# Hepatitis B virus [1] = experiment: Antiviral activity against HBV infected in human HePAD38 cells assessed as reduction in HBV replication by qPCR analysis; type: functional, organism-based
# [2] = Cytotoxicity against human HepAD38 cells assessed as reduction in cell viability incubated for 4 days by XTT assay; type: functional; conditions: HePAD38, 96 h, time 4 day
# Hepatitis B virus [3] = experiment: Antiviral activity against HBV infected in human HepDES19 cells assessed as inhibition of HBV replication by qPCR analysis; type: functional, organism-based
# [4] = Inhibition of HBV RNA polymerase; set-up: species or system Hepatitis B virus
# Hepatitis B virus [5] = experiment: Antiviral activity against HBV transfected in human HB611 cells assessed as reduction of HBV DNA replication incubated for 5 days by q-PCR analysis; type: functional, organism-based; conditions: HB611, 120 h
# Hepatitis B virus [6] = experiment: Antiviral activity against HBV transfected in human HB611 cells; type: functional, organism-based
# [7] = Cytotoxicity against human HB611 cells assessed as reduction in cell viability incubated for 6 to 9 days by celltiter-glo assay; type: functional; conditions: time 6-9 day
# HepG2 [8] = experiment: Cytotoxicity against human HepG2 cells assessed as reduction in cell viability by MTS assay; type: functional
# HepG2 [9] = experiment: Cytotoxicity against human HepG2 cells assessed as reduction in cell viability in presence of lamivudine by MTS assay; type: functional
# Hepatitis B virus [10] = experiment: Antiviral activity against HBV infected in human HepDES19 cells assessed as inhibition of extracellular HBV DNA by qPCR analysis; type: functional, organism-based
# [11] = Cytotoxicity against human HepDES19 cells assessed as reduction in cell viability incubated for 1 hr by MTS assay; type: functional
# [12] = Cytotoxicity against human HEK293 cells assessed as reduction in cell viability incubated for 1 hr by MTS assay; type: toxicity, cell-based
# [13] = Cytotoxicity against human LX2 cells assessed as reduction in cell viability incubated for 1 hr by MTS assay; type: toxicity, cell-based; conditions: LX-2 cells
# Hepatitis B virus [14] = experiment: Antiviral activity against HBV infected in human HepG2 2.2.15 cells assessed as reduction on HBsAg level incubated for 5 days; type: functional; set-up: concentration or dose not given beside the values; conditions: time 5 day
# Hepatitis B virus [15] = experiment: Antiviral activity against HBV infected in human HepG2-hNTCP cells assessed as reduction in HBV DNA replication by qRT-PCR analysis; type: functional, organism-based
# [16] = Cytotoxicity against human HepG2-hNTCP cells assessed as reduction in cell viability incubated for 3 days by celltiter glo assay; type: functional; conditions: 72 h, time 3 day
# [17] = Cytotoxicity against human HB611 cells assessed as reduction in cell viability incubated for 3 days by celltiter glo assay; type: functional; conditions: HB611, 72 h, time 3 day
# Hepatitis B virus [18] = experiment: Antiviral activity against HBV infected in human HepDES19 cells assessed as reduction in HBV replication; type: functional, organism-based
# HepG2 [19] = experiment: Cytotoxicity against human HepG2 cells assessed as cell viability incubated for 12 days by WST-1 assay; type: functional; conditions: HepG2, 288 h, time 12 day
# Hepatitis B virus [20] = experiment: Antiviral activity against HBV infected in human HepG2-NTCP12 cells assessed as inhibition of extracellular HBV DNA incubated for 2 weeks by SYBR green dye based quantitative PCR analysis; type: functional, organism-based; conditions: HepG2-NTCP12, 336 h
# [21] = Cytotoxicity against human primary hepatocytes assessed as cell viability incubated for 72 hrs by MTS assay; type: toxicity, cell-based, Hepatocyte
# [22] = Cytotoxicity against human primary hepatocytes assessed as cell viability incubated for 72 hrs by LDH release assay; type: toxicity, cell-based, Hepatocyte
smiles,measurement,setting,value
COc1ccc(-c2cccc(Nc3cc(=O)n(O)c(=O)[nH]3)c2)cc1,IC50,Hepatitis B virus [1],8 µM
same,CC50,[2],> 100 µM
COc1ccc(CNC(=O)C2C(=O)N(O)C(=O)c3ccccc32)cc1 (centres undefined),EC50,Hepatitis B virus [3],0.69 µM
CCCCCCCC/C=C\CCCCCCCC(=O)NCCc1ccc(O)c(O)c1 [OLEOYL DOPAMINE],IC50,[4],0.41 µM
same,IC50,Hepatitis B virus [5],0.1 µM
same,EC50,Hepatitis B virus [6],0.13 µM
same,CC50,[7],0.9 µM
O=C(Nc1ccc(F)cc1)C1C(=O)N(O)C(=O)c2ccccc21 (centres undefined),EC50,Hepatitis B virus [3],0.69 µM
CC(C)c1ccc(O)c(=O)c(O)c1 [BETA-THUJAPLICINOL],CC50,HepG2 [8],47 µM
same,CC50,HepG2 [9],48 µM
O=C1OCc2cc(O)c(=O)c(O)cc21,EC50,Hepatitis B virus [10],0.6 µM
same,CC50,[11],> 100 µM
same,CC50 at 1 h,[12],> 100 µM
same,CC50 at 1 h,[13],> 100 µM
O=C(NCc1ccc(F)cc1)C1C(=O)N(O)C(=O)c2cc(Cl)ccc21 (centres undefined),EC50,Hepatitis B virus [3],0.69 µM
N#C/C=C1/C=C[C@@H](O)C[C@H]1O[C@@H]1O[C@H](CO)[C@@H](O)[C@H](O)[C@H]1O,Activity,Hepatitis B virus [14],62%
COc1ccc(CNC(=O)C2C(=O)N(O)C(=O)c3cc([N+](=O)[O-])ccc32)cc1 (centres undefined),EC50,Hepatitis B virus [3],0.69 µM
Cc1ccc(C(=O)Nc2ccc(S(=O)(=O)O)c3cc(S(=O)(=O)O)cc(S(=O)(=O)O)c23)cc1NC(=O)c1cccc(NC(=O)Nc2cccc(C(=O)Nc3cc(C(=O)Nc4ccc(S(=O)(=O)O)c5cc(S(=O)(=O)O)cc(S(=O)(=O)O)c45)ccc3C)c2)c1 [SURAMIN],IC50,Hepatitis B virus [15],0.27 µM
same,CC50,[16],200 µM
same,CC50,[17],168 µM
COC(=O)c1c2c(cc(O)c(=O)c1O)COC2=O,EC50,Hepatitis B virus [10],0.5 µM
same,CC50,[11],> 77 µM
same,CC50 at 1 h,[12],> 100 µM
CC(=NOCc1ccccc1F)c1c(C)cc(=O)n(O)c1O,EC50,Hepatitis B virus [18],0.11 µM
CC(=NOc1ccc(F)cc1)c1c(C)cc(=O)n(O)c1O,EC50,Hepatitis B virus [18],0.11 µM
COC(=O)c1c(CCl)cc(O)c(=O)c(O)c1C(=O)OC,EC50,Hepatitis B virus [10],0.4 µM
same,CC50,[11],> 80 µM
same,CC50 at 1 h,[12],> 100 µM
same,CC50 at 1 h,[13],> 100 µM
COc1ccccc1CON=C(C)c1c(C)cc(=O)n(O)c1O,EC50,Hepatitis B virus [18],0.11 µM
CC(=NOCc1ccc(F)cc1)c1c(C)cc(=O)n(O)c1O,EC50,Hepatitis B virus [18],0.11 µM
O=C(/C=C/c1ccc(O)c(O)c1)OCCc1ccc(O)c(O)c1,CC50,HepG2 [19],229 µM
CC(=O)O[C@H]1C(=O)[C@@]2(C)[C@H]([C@H](OC(=O)c3ccccc3)[C@]3(O)C[C@H](O)C(C)=C1C3(C)C)[C@]1(OC(C)=O)CO[C@@H]1C[C@@H]2O [BACCATIN III],Activity,Hepatitis B virus [14],62%
CCN(CC)C(=O)C1C(=O)N(O)C(=O)c2ccccc21 (centres undefined),EC50,Hepatitis B virus [3],0.69 µM
C/C(=N\OCc1ccc(F)cc1)c1c(C)cc(=O)n(O)c1O,EC50,Hepatitis B virus [20],0.049 µM
same,CC50 at 72 h,[21],> 100 µM
same,CC50 at 72 h,[22],> 100 µM
N=C(N)SCCc1ccc(OCc2ccc([N+](=O)[O-])cc2)cc1,IC50,Hepatitis B virus [15],7.31 µM
same,CC50,[16],37.4 µM
same,CC50,[17],41.9 µM
CC(=NOCc1ccccc1N)c1c(C)cc(=O)n(O)c1O,EC50,Hepatitis B virus [18],0.11 µM
O=C(NCc1ccc(F)cc1)C1C(=O)N(O)C(=O)c2ccc(O)nc21 (centres undefined),EC50,Hepatitis B virus [18],2.4 µM
CC(=O)c1cc(O)c(=O)c(O)cc1C,EC50,Hepatitis B virus [20],0.049 µM
same,CC50 at 72 h,[21],> 100 µM
same,CC50 at 72 h,[22],> 100 µM
Cc1ccc(CNC(=O)C2C(=O)N(O)C(=O)c3cc(NC(=O)c4ccccc4)ccc32)cc1 (centres undefined),EC50,Hepatitis B virus [3],0.69 µM
O=c1cc(Nc2cccc(-c3ccc(F)cc3)c2)[nH]c(=O)n1O,IC50,Hepatitis B virus [1],5.5 µM
same,CC50,[2],> 100 µM
CCCCCCCCCCCC1=C(O)C(=O)C=C(O)C1=O [EMBELIN],Activity,Hepatitis B virus [14],62%
